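Dose response: 5 concentrations. Exposure: 48 h. Format: 96-well plates. Endpoint: linear interpolation; highest concentration if not reached. GI50: concentration for 50% inhibition of growth.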 Activity calls are given as the source filed them. Cut-off read from the data, not from the text of the source: active = GI50 up to about 1.1 µM and inactive = higher.
Legend:
Test in all cases: inhibition of tumour cell growth, NCI panel, 48 h
[1] = system: HOP-62
[2] = system: SNB-75
[3] = system: SK-MEL-28
[4] = system: UACC-62
[5] = system: SF-268
[6] = system: Malme-3M
[7] = system: K562
[8] = system: PC-3
[9] = system: RXF 393
[10] = system: SR
[11] = system: A549
[12] = system: HL-60
[13] = system: MDA-N
[14] = system: KM12
[15] = system: HCC 2998
[16] = system: COLO 205
[17] = system: T47D
[18] = system: HT-29
[19] = system: SK-MEL-5
[20] = system: MOLT-4
[21] = system: MCF7
[22] = system: CCRF-CEM
[23] = system: M14
[24] = system: NCI-H23
[25] = system: MDA-MB-231
[26] = system: 786-0
[27] = system: TK-10
[28] = system: LOX IMVI
[29] = system: CAKI-1
[30] = system: IGROV-1
[31] = system: SN12C
[32] = system: SF-295
[33] = system: HCT-15
[34] = system: OVCAR-8
[35] = system: SW-620
[36] = system: SK-OV-3
[37] = system: EKVX
[38] = system: DU-145
[39] = system: RPMI-8226
[40] = system: UACC-257
[41] = system: A498
[42] = system: SK-MEL-2
[43] = system: NCI-H522
[44] = system: SNB-19
[45] = system: OVCAR-3
[46] = system: NCI/ADR-RES
[47] = system: OVCAR-5
[48] = system: NCI-H460
[49] = system: U-251
[50] = system: UO-31
[51] = system: OVCAR-4
[52] = system: ACHN
[53] = system: MDA-MB-435
[54] = system: SF-539
[55] = system: HCT-116
[56] = system: HOP-92
[57] = system: NCI-H226
[58] = system: Hs-578T

C=CCc1c(O)c2nsnc2c2nsnc12
GI50 [1]: > 10 µM (inactive) | GI50 [2]: > 10 µM (inactive) | GI50 [3]: > 10 µM (inactive) | GI50 [4]: > 10 µM (inactive) | GI50 [5]: > 10 µM (inactive) | GI50 [6]: > 10 µM (inactive) | GI50 [7]: > 10 µM (inactive) | GI50 [8]: > 10 µM (inactive) | GI50 [9]: > 10 µM (inactive) | GI50 [10]: > 10 µM (inactive) | GI50 [11]: > 10 µM (inactive) | GI50 [12]: > 10 µM (inactive) | GI50 [13]: > 10 µM (inactive) | GI50 [14]: > 10 µM (inactive) | GI50 [15]: > 10 µM (inactive) | GI50 [16]: > 10 µM (inactive) | GI50 [17]: > 10 µM (inactive) | GI50 [18]: > 10 µM (inactive) | GI50 [19]: > 10 µM (inactive) | GI50 [20]: > 10 µM (inactive) | GI50 [21]: > 10 µM (inactive) | GI50 [22]: > 10 µM (inactive) | GI50 [23]: > 10 µM (inactive) | GI50 [24]: > 10 µM (inactive) | GI50 [25]: > 10 µM (inactive) | GI50 [26]: > 10 µM (inactive) | GI50 [27]: > 10 µM (inactive) | GI50 [28]: > 10 µM (inactive) | GI50 [29]: > 10 µM (inactive) | GI50 [30]: > 10 µM (inactive) | GI50 [31]: > 10 µM (inactive) | GI50 [32]: > 10 µM (inactive) | GI50 [33]: > 10 µM | GI50 [34]: > 10 µM (inactive) | GI50 [35]: > 10 µM (inactive) | GI50 [36]: > 10 µM (inactive) | GI50 [37]: > 10 µM (inactive) | GI50 [38]: > 10 µM (inactive) | GI50 [39]: > 10 µM (inactive) | GI50 [40]: > 10 µM (inactive)

CNC(=O)CNC(=O)CCC(=O)OC
GI50 [1]: > 100 µM (inactive) | GI50 [3]: > 100 µM (inactive) | GI50 [4]: > 100 µM (inactive) | GI50 [41]: > 100 µM (inactive) | GI50 [42]: > 100 µM (inactive) | GI50 [5]: > 100 µM (inactive) | GI50 [7]: > 100 µM (inactive) | GI50 [8]: > 100 µM (inactive) | GI50 [9]: > 100 µM (inactive) | GI50 [11]: > 100 µM (inactive) | GI50 [43]: 66.2 µM (inactive) | GI50 [44]: > 100 µM (inactive) | GI50 [13]: > 100 µM (inactive) | GI50 [14]: > 100 µM (inactive) | GI50 [16]: > 100 µM (inactive) | GI50 [17]: > 100 µM (inactive) | GI50 [45]: > 100 µM (inactive) | GI50 [18]: > 100 µM (inactive) | GI50 [19]: > 100 µM (inactive) | GI50 [46]: > 100 µM (inactive) | GI50 [47]: > 100 µM (inactive) | GI50 [20]: > 100 µM (inactive) | GI50 [21]: > 100 µM (inactive) | GI50 [23]: > 100 µM (inactive) | GI50 [48]: > 100 µM (inactive) | GI50 [24]: > 100 µM (inactive) | GI50 [25]: > 100 µM (inactive) | GI50 [49]: > 100 µM (inactive) | GI50 [26]: > 100 µM (inactive) | GI50 [27]: > 100 µM (inactive) | GI50 [29]: > 100 µM (inactive) | GI50 [50]: > 100 µM (inactive) | GI50 [51]: > 100 µM (inactive) | GI50 [31]: > 100 µM (inactive) | GI50 [32]: > 100 µM (inactive) | GI50 [34]: > 100 µM (inactive) | GI50 [35]: > 100 µM (inactive) | GI50 [52]: > 100 µM (inactive) | GI50 [36]: > 100 µM (inactive) | GI50 [38]: > 100 µM (inactive) | GI50 [53]: > 100 µM (inactive) | GI50 [54]: > 100 µM (inactive) | GI50 [55]: > 100 µM (inactive)

FC(F)(F)c1ccc(/N=C/C=C(/Nc2ccc(C(F)(F)F)cc2)c2ccc(Cl)cc2)cc1
GI50 [1]: 18.2 µM (inactive) | GI50 [2]: 17.6 µM (inactive) | GI50 [3]: 15.1 µM (inactive) | GI50 [4]: 1.82 µM (inactive) | GI50 [42]: 8.34 µM (inactive) | GI50 [5]: 12.1 µM (inactive) | GI50 [6]: 19.4 µM (inactive) | GI50 [7]: 18.4 µM (inactive) | GI50 [8]: 18 µM (inactive) | GI50 [9]: 10.1 µM (inactive) | GI50 [10]: 3.47 µM (inactive) | GI50 [11]: 12.5 µM (inactive) | GI50 [43]: 11.1 µM (inactive) | GI50 [12]: 12.9 µM (inactive) | GI50 [44]: 8.61 µM (inactive) | GI50 [14]: 4.71 µM (inactive) | GI50 [16]: 10.5 µM (inactive) | GI50 [17]: 10.3 µM (inactive) | GI50 [45]: 6.78 µM (inactive) | GI50 [18]: 5.04 µM (inactive) | GI50 [19]: 6.56 µM (inactive) | GI50 [46]: 13.7 µM (inactive) | GI50 [47]: 17.9 µM (inactive) | GI50 [20]: 4.06 µM (inactive) | GI50 [21]: 17.5 µM (inactive) | GI50 [56]: 16.5 µM (inactive) | GI50 [57]: 4.53 µM (inactive) | GI50 [22]: 5.22 µM (inactive) | GI50 [23]: 12.8 µM (inactive) | GI50 [48]: 4.38 µM (inactive) | GI50 [24]: 12.2 µM (inactive) | GI50 [25]: 14.5 µM (inactive) | GI50 [49]: 11.3 µM (inactive) | GI50 [26]: 15.5 µM (inactive) | GI50 [27]: 15.8 µM (inactive) | GI50 [28]: 1.64 µM (inactive) | GI50 [58]: 13 µM (inactive) | GI50 [29]: 3.49 µM (inactive) | GI50 [50]: 14.5 µM (inactive) | GI50 [51]: 14 µM (inactive) | GI50 [30]: 2.62 µM (inactive) | GI50 [31]: 10.4 µM (inactive) | GI50 [32]: 15.8 µM (inactive) | GI50 [33]: 4.73 µM | GI50 [34]: 15.6 µM (inactive) | GI50 [35]: 11 µM (inactive) | GI50 [52]: 10.1 µM (inactive) | GI50 [36]: 16.4 µM (inactive) | GI50 [37]: 15.9 µM (inactive) | GI50 [38]: 13.5 µM (inactive) | GI50 [53]: 6.82 µM (inactive) | GI50 [54]: 14.2 µM (inactive) | GI50 [39]: 4.72 µM (inactive) | GI50 [55]: 4.79 µM (inactive) | GI50 [40]: 16.4 µM (inactive)

Source: ChEMBL document CHEMBL1201862, “PubChem BioAssay data set” (2004)
